Experimental data as given in ChEMBL document CHEMBL1152113, “The prooligonucleotide approach. III: Synthesis and bioreversibility of a chimeric phosphorodithioate prooligonucleotide” (Bioorg Med Chem Lett, 1996).

Legend:
[1] = Half life period was reported in a culture medium (RPMI 1640 + 10% FCS); format: ADME
[2] = Half life period was reported in gastric juice; format: ADME, tissue-based
[3] = Half life period was reported in total cell extract medium; format: ADME
[4] = Half life period was reported in porcine liver esterase medium; format: ADME, Sus scrofa; conditions: pig
[5] = Half life period was reported in gastric juice; stable No degradation observed up to 30 days; format: ADME, tissue-based; conditions: simulated gi fluid, 720 h
[6] = Half life period was reported in gastric juice, stable; No degradation observed up to 30 days; format: ADME, tissue-based; conditions: simulated gi fluid, 720 h

Structure (SMILES) | half-life [1] [h] | half-life [2] [h] | half-life [3] [min] | half-life [4] [min] | T1/2 [5] | T1/2 [6]
CC(=O)SCCSP(=S)(OC[C@H]1O[C@@H](n2cc(C)c(=O)[nH]c2=O)C[C@@H]1O)O[C@H]1C[C@H](n2cc(C)c(=O)[nH]c2=O)O[C@@H]1CO (some centres undefined) | 6 | 168 | < 5 | < 2 |  | 
Cc1cn([C@H]2C[C@H](OP(=S)(OC[C@H]3O[C@@H](n4cc(C)c(=O)[nH]c4=O)C[C@@H]3O)SCCSC(=O)C(C)(C)C)[C@@H](CO)O2)c(=O)[nH]c1=O (some centres undefined) | 42.7 |  | 54 | < 4 | No degradation | 
CCCCCCCCCCCCOC[C@H]1O[C@@H](n2cc(C)c(=O)[nH]c2=O)C[C@@H]1O | 32 |  | 15 |  |  | 
Cc1cn([C@H]2C[C@H](OP(=S)(OC[C@H]3O[C@@H](n4cc(C)c(=O)[nH]c4=O)C[C@@H]3O)SCCSC(=O)c3ccccc3)[C@@H](CO)O2)c(=O)[nH]c1=O (some centres undefined) | 46.5 |  | 36 | 5 |  | No degradation
